# Active and inactive are the calls of the source. The calls are words filed in the database; no cut-off is given here.
# Tests used:
# [1] = biological target: T1, Peroxisome proliferator-activated receptor alpha (Homo sapiens, UniProt Q07869); assay: Agonist activity at human full length PPARalpha expressed in human HepG2 cells co-transfected with PPRE3-TK-luc assessed as […] by firefly luciferase assay; assay type: functional, cell-based
# T1 sequence (Q07869 whole entry): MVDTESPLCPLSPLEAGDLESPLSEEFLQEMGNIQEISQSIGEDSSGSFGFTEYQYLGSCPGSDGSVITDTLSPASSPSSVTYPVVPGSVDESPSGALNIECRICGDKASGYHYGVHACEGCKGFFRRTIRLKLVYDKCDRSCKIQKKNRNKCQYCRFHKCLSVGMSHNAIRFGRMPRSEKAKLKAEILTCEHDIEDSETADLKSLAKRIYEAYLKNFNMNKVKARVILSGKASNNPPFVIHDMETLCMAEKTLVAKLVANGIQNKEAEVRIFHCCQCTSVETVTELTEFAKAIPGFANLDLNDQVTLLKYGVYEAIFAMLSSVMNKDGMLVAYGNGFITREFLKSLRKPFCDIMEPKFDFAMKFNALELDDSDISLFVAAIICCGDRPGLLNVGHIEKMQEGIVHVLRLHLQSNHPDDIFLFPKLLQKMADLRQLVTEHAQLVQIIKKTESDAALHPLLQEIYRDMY
# [2] = biological target: T2, Peroxisome proliferator-activated receptor gamma (Homo sapiens, UniProt P37231); assay: Agonist activity at human full length PPARgamma expressed in human HepG2 cells co-transfected with PPRE3-TK-luc assessed as […] by firefly luciferase assay; assay type: functional, cell-based
# T2 sequence (P37231 whole entry): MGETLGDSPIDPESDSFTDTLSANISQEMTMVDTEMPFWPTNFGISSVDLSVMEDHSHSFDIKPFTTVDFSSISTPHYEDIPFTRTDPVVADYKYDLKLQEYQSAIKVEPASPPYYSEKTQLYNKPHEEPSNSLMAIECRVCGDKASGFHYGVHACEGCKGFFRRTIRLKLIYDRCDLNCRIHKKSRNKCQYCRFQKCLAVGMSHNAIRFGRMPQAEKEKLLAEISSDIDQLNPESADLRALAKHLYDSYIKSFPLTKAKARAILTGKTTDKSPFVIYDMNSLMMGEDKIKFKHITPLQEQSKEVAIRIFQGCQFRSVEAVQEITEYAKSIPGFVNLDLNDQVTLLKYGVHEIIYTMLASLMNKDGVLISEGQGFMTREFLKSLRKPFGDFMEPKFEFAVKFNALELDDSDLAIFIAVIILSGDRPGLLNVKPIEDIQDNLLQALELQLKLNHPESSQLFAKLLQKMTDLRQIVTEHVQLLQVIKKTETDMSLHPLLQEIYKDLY
# [3] = biological target: T3, Peroxisome proliferator-activated receptor alpha (Homo sapiens) (UniProt Q07869); assay: Agonist activity at human full length PPARalpha expressed in human HepG2 cells co-transfected with PPRE3-TK-luc assessed as […] by firefly luciferase assay relative to WY-14643; assay type: functional, cell-based; set-up: concentration or dose not given beside the values
# T3 sequence (whole entry): T1 sequence (Q07869 whole entry)
# [4] = biological target: T4, Peroxisome proliferator-activated receptor delta (Homo sapiens) (UniProt Q03181); assay: Agonist activity at human full length PPARdelta expressed in human HepG2 cells co-transfected with PPRE3-TK-luc assessed as […] at 1 uM by firefly luciferase assay; assay type: functional, cell-based
# T4 sequence (whole entry): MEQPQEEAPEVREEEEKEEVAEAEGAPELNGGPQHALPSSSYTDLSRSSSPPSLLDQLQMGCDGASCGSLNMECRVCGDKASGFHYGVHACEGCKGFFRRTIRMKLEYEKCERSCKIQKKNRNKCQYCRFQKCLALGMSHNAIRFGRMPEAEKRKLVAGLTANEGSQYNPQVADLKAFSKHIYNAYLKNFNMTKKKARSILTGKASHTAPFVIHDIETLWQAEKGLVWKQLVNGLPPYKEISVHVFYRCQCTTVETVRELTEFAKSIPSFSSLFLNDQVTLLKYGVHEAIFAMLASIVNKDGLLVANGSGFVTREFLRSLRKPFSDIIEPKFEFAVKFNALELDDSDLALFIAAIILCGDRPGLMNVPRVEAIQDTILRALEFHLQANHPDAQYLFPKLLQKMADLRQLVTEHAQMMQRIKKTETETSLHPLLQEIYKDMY
# Mus musculus = assay: Reduction in serum triglyceride level in Swiss albino mouse at 10 mg/kg/day for 6 days relative to control; assay type: functional; set-up: scale not given: the % may be the effect or the level left
# Homo sapiens = species on record: Homo sapiens; assay: Selectivity for human full length PPARalpha over human full length PPARgamma
SMILES,EC50 [1] [nM],EC50 ([2]; hepg2),Activity [3] [%],Activity [4],EC50 ([2]; read-out: EC50) [nM],Ratio (Homo sapiens),Activity (Mus musculus) [%]
C/C(=N\OCCCCO/N=C(/CCC(=O)O)c1ccccc1)c1ccc2ccccc2c1,30,,61,inactive,200,6,25
Cc1oc(-c2ccccc2)nc1COc1ccc(CO/N=C(\CCC(=O)O)c2ccccc2)cc1 [IMIGLITAZAR],5,,116,inactive,,,37
COc1cc(/C(C)=N/OCCCCO/N=C(/CCC(=O)O)c2ccccc2)ccc1C,5,,257,inactive,1600,,36
COc1ccc(/C(C)=N/OCCCCO/N=C(/CCC(=O)O)c2ccccc2)cc1,10,,102,inactive,1100,110,35
C/C(=N\OCCCCO/N=C(/CCC(=O)O)c1ccccc1)c1ccc(C(F)(F)F)cc1,400,,79,inactive,1400,,0.6
C/C(=N\OCCCCO/N=C(/CCC(=O)O)c1ccccc1)c1ccc(S(C)(=O)=O)cc1,2400,,41,inactive,1900,,14
CCCCc1cccc(/C(C)=N/OCCCCO/N=C(/CCC(=O)O)c2ccccc2)c1,500,,85,inactive,200,,31
C/C(=N\OCCCCO/N=C(/CCC(=O)O)c1ccccc1)c1ccc2c(c1)CCCC2,3,,86,inactive,200,,36
C/C(=N\OCCCCO/N=C(/CCC(=O)O)c1ccccc1)c1cccc(-c2ccccc2)c1,20,,83,inactive,100,,23

# More lines, main results first:
EC50 [1] [nM],EC50 ([2]; hepg2),Activity [3] [%],Activity [4],EC50 ([2]; read-out: EC50) [nM],Ratio (Homo sapiens),SMILES,Activity (Mus musculus) [%]
2300,Not Active,46,inactive,,,C/C(=N\OCCCCO/N=C(/CCC(=O)O)c1ccccc1)c1ccccc1,
400,,122,inactive,700,,COc1cc(/C(C)=N/OCCCCO/N=C(/CCC(=O)O)c2ccccc2)ccc1F,19
2,,89,inactive,1000,320,C/C(=N\OCCCCO/N=C(/CCC(=O)O)c1ccccc1)c1ccc(C)c(C)c1,12
100,,136,inactive,800,,COc1ccc(/C(C)=N/OCCCCO/N=C(/CCC(=O)O)c2ccccc2)cc1OC,30
50,,101,inactive,1400,,C/C(=N\OCCCCO/N=C(/CCC(=O)O)c1ccccc1)c1ccc(F)cc1,18
50,,78,inactive,2100,,C/C(=N\OCCCCO/N=C(/CCC(=O)O)c1ccccc1)c1ccc(C)cc1,13

# — ChEMBL document CHEMBL1157734, “Design and synthesis of novel bis-oximinoalkanoic acids as potent PPAR alpha agonists” (Bioorg Med Chem Lett, 2010)
